Legend:
[1] = tested on: TK10 (Kidney Carcinoma); experiment: Bliss excess, mean over the matrix (fraction); higher = more synergy
Summary of the method: (§1)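 Bliss excess equals the observed combination effect minus the expected value EA + EB − EA·EB, where EA and EB are the effects of each agent alone. Combination Emax is the second-highest inhibition within the matrix. Inhibition was scaled from CellTiter-Glo 2.0 luminescence, with 0 set by vehicle wells and 1 by blank wells, after 72 hours of two-drug dosing of cells plated in 1536-well plates.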

[2] = tested on: NCI-H358 (Lung Adenocarcinoma); experiment: as above
Summary of the method: as §1

[3] = tested on: MIA-PaCa-2 (Pancreatic Carcinoma); experiment: as above
Summary of the method: as §1

[4] = tested on: OE19 (Esophageal Adenocarcinoma); experiment: as above
Summary of the method: as §1

[5] = tested on: Ca9-22 (Head and Neck Carcinoma); experiment: as above
Summary of the method: as §1

[6] = tested on: SW13 (Other Solid Carcinomas); experiment: as above
Summary of the method: as §1

[7] = tested on: EFM-19 (Breast Carcinoma); experiment: as above
Summary of the method: as §1

[8] = tested on: SU8686 (Pancreatic Carcinoma); experiment: as above
Summary of the method: as §1

[9] = tested on: BT-549 (Breast Carcinoma); experiment: as above
Summary of the method: as §1

[10] = tested on: NCI-H727 (Other Solid Carcinomas); experiment: as above
Summary of the method: as §1

[11] = tested on: KARPAS-299 (T-Cell Non-Hodgkin's Lymphoma); experiment: as above
Summary of the method: as §1

[12] = tested on: RF-48 (B-Cell Non-Hodgkin's Lymphoma); experiment: as above
Summary of the method: as §1

[13] = tested on: KMOE-2 (Acute Myeloid Leukemia); experiment: as above
Summary of the method: as §1

[14] = tested on: HOP-62 (Lung Adenocarcinoma); experiment: as above
Summary of the method: as §1

[15] = tested on: EW-24 (Ewing's Sarcoma); experiment: as above
Summary of the method: as §1

[16] = tested on: KYSE-450 (Esophageal Squamous Cell Carcinoma); experiment: as above
Summary of the method: as §1

[17] = tested on: PWR-1E (Non-Cancerous); experiment: as above
Summary of the method: as §1

[18] = tested on: HGC-27 (Gastric Carcinoma); experiment: as above
Summary of the method: as §1

[19] = tested on: NB69 (Neuroblastoma); experiment: as above
Summary of the method: as §1

[20] = tested on: UACC-62 (Melanoma); experiment: combination Emax (second highest fraction inhibited in the dose matrix, 72 h); higher = more inhibition; extreme values may be limits of the assay
Summary of the method: as §1

## Cn1cnc2c(F)c(Nc3ccc(Br)cc3Cl)c(C(=O)NOCCO)cc21 [Selumetinib] + CC(C)n1c(=O)n(C)c2cnc3cc(F)c(-c4ccc(OCCCN5CCCCC5)nc4)cc3c21 [AZD1390] (first compound max 10 µM, 7x7, partner max 0.3 µM)
[1]
  Bliss excess: -0.0336
[2]
  Bliss excess: -0.03
[3]
  Bliss excess: -0.0287
[4]
  Bliss excess: -0.0326
[5]
  Bliss excess: 0.0337
[6]
  Bliss excess: 0.0129
[7]
  Bliss excess: -0.0264
[8]
  Bliss excess: -0.0255
[9]
  Bliss excess: -0.0438
[10]
  Bliss excess: -0.0229
[11]
  Bliss excess: 0.0285
[12]
  Bliss excess: -0.056
[13]
  Bliss excess: 0.0296
[14]
  Bliss excess: -0.0451
[15]
  Bliss excess: -0.0594
[16]
  Bliss excess: -0.0416
[17]
  Bliss excess: -0.0467
[18]
  Bliss excess: -0.0129
[19]
  Bliss excess: -0.0538
[20]
  combination Emax: 0.787

## COc1cccc(OCCCN)c1-c1cc(Nc2cnc(C#N)cn2)n[nH]1 [Prexasertib] + C[C@@H]1COCCN1C2=NC(=NC(=C2)C3(CC3)[S@](=N)(=O)C)C4=C5C=CNC5=NC=C4 [AZD6738] (first compound max 1 µM, 7x7, partner max 10 µM)
[1]
  Bliss excess: 0.0238
[2]
  Bliss excess: -0.021
[3]
  Bliss excess: -0.105
[4]
  Bliss excess: -0.0277
[5]
  Bliss excess: -0.0024
[6]
  Bliss excess: 0.0627
[7]
  Bliss excess: -0.0296
[8]
  Bliss excess: -0.0315
[9]
  Bliss excess: 0.0054
[10]
  Bliss excess: -0.0047
[11]
  Bliss excess: -0.0184
[12]
  Bliss excess: -0.0175
[13]
  Bliss excess: -0.0043
[14]
  Bliss excess: 0.0375
[15]
  Bliss excess: -0.0522
[16]
  Bliss excess: 0.0135
[17]
  Bliss excess: 0.0243
[18]
  Bliss excess: -0.057
[19]
  Bliss excess: -0.0228
[20]
  combination Emax: 0.697

## COc1nnc2ccc(N3CCC(c4ccc(OCCN5CCN(C)C(=O)[C@H]5C)cc4)CC3)nn12 [AZD5153] + CCN(CCO)CCCOc1ccc2c(Nc3cc(CC(=O)Nc4cccc(F)c4)[nH]n3)ncnc2c1 [AZD2811] (first compound max 1 µM, 7x7, partner max 1 µM)
[1]
  Bliss excess: -0.0717
[2]
  Bliss excess: -0.0479
[3]
  Bliss excess: 0.0109
[4]
  Bliss excess: -0.0026
[5]
  Bliss excess: -0.023
[6]
  Bliss excess: -0.0368
[7]
  Bliss excess: -0.0262
[8]
  Bliss excess: -0.0309
[9]
  Bliss excess: -0.0576
[10]
  Bliss excess: -0.0469
[11]
  Bliss excess: -0.0009
[12]
  Bliss excess: 0.0065
[13]
  Bliss excess: -0.0176
[14]
  Bliss excess: -0.0853
[15]
  Bliss excess: -0.0598
[16]
  Bliss excess: -0.0527
[17]
  Bliss excess: -0.0096
[18]
  Bliss excess: -0.102
[19]
  Bliss excess: -0.0087
[20]
  combination Emax: 0.478

## CCN(CCO)CCCOc1ccc2c(Nc3cc(CC(=O)Nc4cccc(F)c4)[nH]n3)ncnc2c1 [AZD2811] + O=C(c1cc(Cc2n[nH]c(=O)c3ccccc23)ccc1F)N1CCN(C(=O)C2CC2)CC1 [Olaparib] (first compound max 1 µM, 7x7, partner max 10 µM)
[1]
  Bliss excess: -0.0391
[2]
  Bliss excess: -0.063
[3]
  Bliss excess: 0.0461
[4]
  Bliss excess: 0.0454
[5]
  Bliss excess: 0.0109
[6]
  Bliss excess: 0.0345
[7]
  Bliss excess: -0.0669
[8]
  Bliss excess: -0.0075
[9]
  Bliss excess: -0.0015
[10]
  Bliss excess: -0.0184
[11]
  Bliss excess: 0.0298
[12]
  Bliss excess: 0.0181
[13]
  Bliss excess: 0.0545
[14]
  Bliss excess: -0.0376
[15]
  Bliss excess: 0.0173
[16]
  Bliss excess: -0.0135
[17]
  Bliss excess: 0.0243
[18]
  Bliss excess: -0.0122
[19]
  Bliss excess: -0.0517
[20]
  combination Emax: 0.258

## CCN(CCO)CCCOc1ccc2c(Nc3cc(CC(=O)Nc4cccc(F)c4)[nH]n3)ncnc2c1 [AZD2811] + C[C@@H]1COCCN1C2=NC(=NC(=C2)C3(CC3)[S@](=N)(=O)C)C4=C5C=CNC5=NC=C4 [AZD6738] (first compound max 1 µM, 7x7, partner max 10 µM)
[1]
  Bliss excess: -0.0811
[2]
  Bliss excess: 0.0096
[3]
  Bliss excess: -0.0797
[4]
  Bliss excess: -0.0264
[5]
  Bliss excess: 0.0323
[6]
  Bliss excess: 0.0474
[7]
  Bliss excess: -0.0478
[8]
  Bliss excess: -0.034
[9]
  Bliss excess: 0.0066
[10]
  Bliss excess: -0.0849
[11]
  Bliss excess: -0.0024
[12]
  Bliss excess: -0.0434
[13]
  Bliss excess: -0.032
[14]
  Bliss excess: -0.0313
[15]
  Bliss excess: -0.104
[16]
  Bliss excess: -0.0621
[17]
  Bliss excess: -0.0472
[18]
  Bliss excess: -0.0885
[19]
  Bliss excess: -0.0806
[20]
  combination Emax: 0.519

## C=CCn1c(=O)c2cnc(Nc3ccc(N4CCN(C)CC4)cc3)nc2n1-c1cccc(C(C)(C)O)n1 [AZD1775] + C[C@@H]1COCCN1C2=NC(=NC(=C2)C3(CC3)[S@](=N)(=O)C)C4=C5C=CNC5=NC=C4 [AZD6738] (first compound max 1 µM, partner max 10 µM)
[1]
  Bliss excess: -0.0896
[2]
  Bliss excess: -0.0219
[3]
  Bliss excess: 0.12
[4]
  Bliss excess: 0.0514
[5]
  Bliss excess: -0.0002
[6]
  Bliss excess: 0.0169
[7]
  Bliss excess: -0.0503
[8]
  Bliss excess: -0.0188
[9]
  Bliss excess: 0.0107
[10]
  Bliss excess: 0.0078
[11]
  Bliss excess: 0.0169
[12]
  Bliss excess: -0.0098
[13]
  Bliss excess: 0.0308
[14]
  Bliss excess: 0.0372
[15]
  Bliss excess: -0.0427
[16]
  Bliss excess: 0.0809
[17]
  Bliss excess: 0.0106
[18]
  Bliss excess: 0.118
[19]
  Bliss excess: 0.0351
[20]
  combination Emax: 0.622
